The source made the active and inactive calls. The rule behind the calls is not given here.

The subject of the first test is S2. Put plainly: Binding affinity to Influenza A virus (A/California/07/2009(H1N1)) recombinant wild type N-terminal FLAG-tagged neuraminidase catalytic domain transfected in Drosophila Schneider S2 cells at 76 to 93 uM by isothermal titration calorimetric method. In general terms: Isothermal titration calorimetry measures the heat released or taken up as one component is titrated into another.
For `CCC(CC)O[C@@H]1C=C(P(=O)(O)O)C[C@H](N)[C@H]1NC(C)=O` [TAMIPHOSPHOR], the outcome was Active.

Regarding `CCC(CC)O[C@@H]1C=C(C(=O)O)C[C@H](N)[C@H]1NC(C)=O` [OSELTAMIVIR CARBOXYLATE], the outcome was Active.

Tested on in the next test: not listed separately
Put plainly: Inhibition of Influenza A virus (A/California/07/2009(H1N1)) recombinant wild type N-terminal FLAG-tagged neuraminidase ectodomain (82 to 469 residues) transfected in Drosophila Schneider S2 cells using 4-MUNANA as substrate after 20 mins by fluorometric method.
As to `CCC(CC)O[C@@H]1C=C(P(=O)(O)O)C[C@H](N)[C@H]1NC(C)=O` [TAMIPHOSPHOR], the Ki (commonly a measure of affinity in units of concentration, obtained from inhibition or displacement) stood at 26 nM.

As to `CCC(CC)O[C@@H]1C=C(P(=O)(O)OC)C[C@H](N)[C@H]1NC(C)=O`, the Ki was found to be 39 nM.

For the compound `CCC(CC)O[C@@H]1C=C(P(=O)(O)O)C[C@H](NC(=N)N)[C@H]1NC(C)=O`, the Ki was 140 nM.

Take `CCC(CC)O[C@@H]1C=C(C(=O)O)C[C@H](NC(=N)N)[C@H]1NC(C)=O`: the Ki came to 46 nM.

Values taken from ChEMBL document CHEMBL3856207, “Kinetic, thermodynamic and structural analysis of tamiphosphor binding to neuraminidase of H1N1 (2009) pandemic influenza” (Eur J Med Chem, 2016).
